Assay results published in patent publication US6569894B1, “Arylalkylbenzofuran derivatives as melatonergic agents” (Bristol-Myers Squibb Company, priority 2001, dated 2003).

How the values were obtained:
ML1b receptor = biological target: T1, ML1b receptor (Homo sapiens, UniProt P49286); assay: Melatonergic receptor binding activity, 2-[125I]-iodomelatonin, ML1b; details: 37° C. for 1 hour
T1 construct: expressed in transfected cells
T1 sequence (P49286 1-362): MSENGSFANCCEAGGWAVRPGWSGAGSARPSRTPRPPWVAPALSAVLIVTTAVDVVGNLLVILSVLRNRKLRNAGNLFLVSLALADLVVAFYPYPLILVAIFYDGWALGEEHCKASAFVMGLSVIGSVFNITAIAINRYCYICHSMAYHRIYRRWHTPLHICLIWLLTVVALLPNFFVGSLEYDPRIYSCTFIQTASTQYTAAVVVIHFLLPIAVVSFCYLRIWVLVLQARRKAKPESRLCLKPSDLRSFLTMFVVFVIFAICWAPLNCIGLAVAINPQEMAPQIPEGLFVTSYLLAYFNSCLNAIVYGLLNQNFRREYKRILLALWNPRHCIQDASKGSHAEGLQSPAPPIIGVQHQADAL
Description: (§1) Melatonergic Receptor Binding Activity
(§2) (a) TME=50 mM Tris buffer containing 12.5 mM MgCl2, and 2 mM EDTA, pH 7.4 at 37° C., with concentrated HCl.
(§3) (b) Wash buffer: 20 mM Tris base containing 2 mM MgCl2, pH 7.4 at room temperature.
(§4) (c) 10^−4 M melatonin (10^−5 M final concentration).
(§5) (d) 2-[^125I]-iodomelatonin, […] final concentration.
(§6) 3. Incubation: 37° C. for 1 hour. Reaction is terminated by filtration. Filters were washed 3 times.
(§7) The compounds of the present invention have affinity for receptors of the endogenous pineal hormone, melatonin, as determined in a receptor binding assays described above in Tables I to V for the ML1a and ML1b (human) receptors. Melatonin is involved in the regulation of a variety of biological rhythms and exerts its biological effects via interaction with specific receptors. There is evidence that administration of melatonin agonists are of clinical utility in the treatment of various conditions regulated by melatonin activity. Such conditions include depression, jet-lag, work-shift syndrome, sleep disorders, glaucoma, some disorders associated with reproduction, cancer benign prostatic hyperplasia, immune disorders and neuroendocrine disorders.

ML1a receptor = biological target: T2, ML1a receptor (Homo sapiens, UniProt P48039); assay: Melatonergic receptor binding activity, 2-[125I]-iodomelatonin, ML1a; details: membrane homogenates of NIH-3T3 cells, 37° C. for 1 hour
T2 construct: expressed in transfected cells; pcDNA3)
Description: as §1, §2, §3, §4, §5
2. Membrane Homogenates: The melatonin ML1α receptor cDNA was subcloned into pcDNA3 and introduced into NIH-3T3 cells using Lipofectamine. Transformed NIH-3T3 cells resistant to geneticin (G-418) were isolated, and single colonies expressing high levels of 2-[^125I]-iodomelatonin binding were isolated. Cells are maintained in DMEM supplemented with 10% calf serum and G-418 (0.5 g/liter). Cells are grown to confluency in T-175 flasks, scraped using Hank's balanced salt solution, and frozen at −80° C. For preparing membrane homogenates, pellets are thawed on ice, and re-suspended in TME buffer in the presence of 10 μg/ml aprotinin and leupeptin, and 100 μM phenylmethylsulfonylfluoride. The cells were then homogenized using a dounce homogenizer, and centrifuged. The resulting pellet was re-suspended with dounce homogenizer in TME (supplemented with the above protease inhibitors) and frozen. On the day of assay, a small aliquot was thawed on ice and re-suspended in the ice cold TME (1:50-1:100 v/v) and held on ice until assayed.
as §6, §7

T2 sequence (P48039 whole entry): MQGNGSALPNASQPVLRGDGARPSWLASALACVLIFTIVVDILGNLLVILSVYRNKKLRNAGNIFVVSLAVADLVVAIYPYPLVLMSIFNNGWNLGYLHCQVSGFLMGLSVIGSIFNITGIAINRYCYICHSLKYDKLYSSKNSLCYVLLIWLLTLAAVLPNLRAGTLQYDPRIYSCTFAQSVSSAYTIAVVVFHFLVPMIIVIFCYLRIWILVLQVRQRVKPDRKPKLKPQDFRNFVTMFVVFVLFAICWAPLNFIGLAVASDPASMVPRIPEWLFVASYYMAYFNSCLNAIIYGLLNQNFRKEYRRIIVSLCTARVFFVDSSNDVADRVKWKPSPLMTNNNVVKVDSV

In the case of CCCC(=O)NCCCc1cccc2oc(CCCCc3ccccc3)cc12 [Example 11, N-[3-[2-(4-Phenylbutyl)benzofuran-4-yl]propyl]butyramide], the IC50 (ML1b receptor; Table II) is reported as 10 to 250 nM and the IC50 (ML1a receptor; Table II) is reported as 10 to 250 nM.
“N-3-(2-(3-Phenylprop-1-yl)benzofuran-3-yl)prop-1-yl Propanamide [Example 20]” showed an IC50 (ML1b receptor; Table III) of over 250 nM and an IC50 (ML1a receptor; Table III) of 10 to 250 nM.
Compound CCNC(=O)NC[C@@H]1C[C@H]1c1cccc2oc(CCCCc3ccccc3)cc12 (stereo in doubt) [Example 35, N-({(1R,2R)-2-[2-(4-Phenylbutyl)benzo[b]furan-4-yl]-cyclopropyl}methyl)(ethylamino)carboxamide] has an IC50 (ML1b receptor; Table IV) of 10 to 250 nM and an IC50 (ML1a receptor; Table IV) of 10 to 250 nM.
“N-3-(2-(3-Phenylprop-1-yl)benzofuran-3-yl)prop-1-yl Butyramide [Example 21]” gave an IC50 (ML1b receptor; Table III) of over 250 nM and an IC50 (ML1a receptor; Table III) of 10 to 250 nM.
O=C(NC[C@@H]1C[C@H]1c1cccc2c1C[C@@H](CCCCc1ccccc1)O2)C1CC1 [Example 46, N-({2-[(2R)-2-(4-Phenylbutyl)(2,3-dihydrobenzo[b]furan-4-yl)]-(1R,2R)cyclopropyl}methyl)cyclopropylcarboxamide] showed an IC50 (ML1b receptor; Table V) of 10 to 250 nM and an IC50 (ML1a receptor; Table V) of under 10 nM.
CCCC(=O)NC[C@H]1C[C@@H]1c1cccc2oc(CCCCc3ccccc3)cc12 (racemic) [Example 32, N-({(1R,2R)-2-[2-(4-Phenylbutyl)benzo[b]furan-4-yl]-cyclopropyl}methyl)butanamide] was tested, and the IC50 (ML1b receptor; Table IV) was 10 to 250 nM and the IC50 (ML1a receptor; Table IV) was 10 to 250 nM.
“N-3-(2-(2-Phenyleth-1-yl)benzofuran-3-yl)prop-1-yl Propanamide [Example 24]” showed an IC50 (ML1b receptor; Table III) of 10 to 250 nM and an IC50 (ML1a receptor; Table III) of 10 to 250 nM.
With CC(=O)NCCCc1cccc2oc(CCCCc3ccc(C(F)(F)F)cc3)cc12 [Example 15, N-[3-[2-[4-(4-Trifluoromethylphenyl)butyl]benzofuran-4-yl]propyl]-acetamide] the IC50 (ML1b receptor; Table III) was over 250 nM and the IC50 (ML1a receptor; Table III) was 10 to 250 nM.
CCC(=O)NC[C@@H]1C[C@H]1c1cccc2oc(CCCCc3ccc(F)cc3)cc12 (stereo in doubt) [Example 37, N-[((1R,2R)-2-{2-[4-(4-Fluorophenyl)butyl]benzo[b]furan-4-yl}-cyclopropyl)methyl]propanamide] showed an IC50 (ML1b receptor; Table IV) of 10 to 250 nM and an IC50 (ML1a receptor; Table IV) of under 10 nM.
CCCC(=O)NCCCc1cccc2oc(CCCCc3ccc(C(F)(F)F)cc3)cc12 [Example 17, N-[3-[2-[4-(4-Trifluoromethylphenyl)butyl]benzofuran-4-yl]propyl]-butyramide] was tested, and the IC50 (ML1b receptor; Table III) was 10 to 250 nM and the IC50 (ML1a receptor; Table III) was 10 to 250 nM.
Compound CC(=O)NC[C@H]1C[C@@H]1c1cccc2oc(CCCCc3ccccc3)cc12 (single isomer, unassigned) [Example 30] has an IC50 (ML1b receptor; Table IV) of over 250 nM and an IC50 (ML1a receptor; Table IV) of 10 to 250 nM.
CCC(=O)NCCCc1cccc2c1C[C@H](CCCCc1ccccc1)O2 (stereo in doubt) [Example 2, N-[3-[2-(4-Phenylbutyl)-2,3-dihydrobenzofuran-4-yl]propyl]propionamide] gave an IC50 (ML1b receptor; Table I) of 10 to 250 nM and an IC50 (ML1a receptor; Table I) of under 10 nM.
For CC(C)C(=O)NC[C@@H]1C[C@H]1c1cccc2c1C[C@@H](CCCCc1ccccc1)O2 [Example 45, N-({2-[(2R)-2-(4-Phenylbutyl)(2,3-dihydrobenzo[b]furan-4-yl)]-(1R,2R)cyclopropyl}methyl)-2-methylpropanamide], the IC50 (ML1b receptor; Table V) was 10 to 250 nM and the IC50 (ML1a receptor; Table V) was 10 to 250 nM.
For CCCC(=O)NC[C@@H]1C[C@H]1c1cccc2c1C[C@@H](CCCCc1ccccc1)O2 [Example 44, N-({2-[(2R)-2-(4-Phenylbutyl)(2,3-dihydrobenzo[b]furan-4-yl)]-(1R,2R)cyclopropyl}methyl)butanamide], the IC50 (ML1b receptor; Table V) was under 10 nM and the IC50 (ML1a receptor; Table V) was under 10 nM.
Work on CC(=O)NC[C@H]1C[C@@H]1c1cccc2oc(CCCCc3ccccc3)cc12 (racemic) [Example 28, N-({(1R,2R)-2-[2-(4-Phenylbutyl)benzo[b]furan-4-yl]-cyclopropyl}methyl)acetamide] yielded an IC50 (ML1b receptor; Table IV) of 10 to 250 nM and an IC50 (ML1a receptor; Table IV) of under 10 nM.
Work on CC(C)C(=O)NCCCc1cccc2oc(CCCCc3ccccc3)cc12 [Example 12, N-[3-[2-(4-Phenylbutyl)benzofuran-4-yl]propyl]-2-methyl Propionamide] yielded an IC50 (ML1b receptor; Table II) of 10 to 250 nM and an IC50 (ML1a receptor; Table II) of under 10 nM.
“N-3-(2-(2-Phenyleth-1-yl)benzofuran-3-yl)prop-1-yl Acetamide [Example 23]” was tested, and the IC50 (ML1b receptor; Table III) was 10 to 250 nM and the IC50 (ML1a receptor; Table III) was 10 to 250 nM.
Work on CC(C)C(=O)NC[C@@H]1C[C@H]1c1cccc2oc(CCCCc3ccc(F)cc3)cc12 (stereo in doubt) [Example 39, N-[((1R,2R)-2-{2-[4-(4-Fluorophenyl)butyl]benzo[b]furan-4-yl}-cyclopropyl)methyl]-2-methylpropanamide] yielded an IC50 (ML1b receptor; Table IV) of 10 to 250 nM and an IC50 (ML1a receptor; Table IV) of 10 to 250 nM.
Compound CCCC(=O)NC[C@@H]1C[C@H]1c1cccc2oc(CCCCc3ccc(F)cc3)cc12 (stereo in doubt) [Example 38, N-[((1R,2R)-2-{2-[4-(4-Fluorophenyl)butyl]benzo[b]furan-4-yl}-cyclopropyl)methyl]butanamide] has an IC50 (ML1b receptor; Table IV) of 10 to 250 nM and an IC50 (ML1a receptor; Table IV) of 10 to 250 nM.
Compound CC(=O)NC[C@H]1C[C@@H]1c1cccc2oc(CCCCc3ccccc3)cc12 (single isomer, unassigned) [Example 29] has an IC50 (ML1b receptor; Table IV) of 10 to 250 nM and an IC50 (ML1a receptor; Table IV) of under 10 nM.
“N-3-(2-(3-Phenylprop-1-yl)benzofuran-3-yl)prop-1-yl Cyclopropanecarboxamide [Example 22]” gave an IC50 (ML1b receptor; Table III) of over 250 nM and an IC50 (ML1a receptor; Table III) of 10 to 250 nM.
In the case of CCC(=O)NCCCc1cccc2oc(CCCCc3ccc(C(F)(F)F)cc3)cc12 [Example 16, N-[3-[2-[4-(4-Trifluoromethylphenyl)butyl]benzofuran-4-yl]propyl]-propionamide], the IC50 (ML1b receptor; Table III) is reported as 10 to 250 nM and the IC50 (ML1a receptor; Table III) is reported as 10 to 250 nM.
In the case of CCNC(=O)NC[C@H]1C[C@@H]1c1cccc2oc(CCCCc3ccc(F)cc3)cc12 [Example 41, N-[((1R,2R)-2-{2-[4-(4-Fluorophenyl)butyl]benzo[b]furan-4-yl-}-cyclopropyl)methyl](ethylamino)carboxamide], the IC50 (ML1b receptor; Table IV) is reported as over 250 nM and the IC50 (ML1a receptor; Table IV) is reported as 10 to 250 nM.
With CCC(=O)NC[C@@H]1C[C@H]1c1cccc2c1C[C@@H](CCCCc1ccccc1)O2 [Example 43, N-({2-[(2R)-2-(4-Phenylbutyl)(2,3-dihydrobenzo[b]furan-4-yl)]-(1R,2R)cyclopropyl}methyl)propanamide] the IC50 (ML1b receptor; Table V) was under 10 nM and the IC50 (ML1a receptor; Table V) was under 10 nM.
Compound CC(=O)NC[C@@H]1C[C@H]1c1cccc2oc(CCCCc3ccc(F)cc3)cc12 (stereo in doubt) [Example 36, N-[((1R,2R)-2-{2-[4-(4-Fluorophenyl)butyl]benzo[b]furan-4-yl}-cyclopropyl)methyl]acetamide] has an IC50 (ML1b receptor; Table IV) of 10 to 250 nM and an IC50 (ML1a receptor; Table IV) of under 10 nM.
O=C(NCCCc1cccc2oc(CCCCc3ccc(C(F)(F)F)cc3)cc12)C1CC1 [Example 13, N-[3-[2-[4-(4-Trifluoromethylphenyl)butyl]benzofuran-4-yl]propyl]-cyclopropane Carboxamide] was tested, and the IC50 (ML1b receptor; Table III) was over 250 nM and the IC50 (ML1a receptor; Table III) was over 250 nM.
For CC(C)C(=O)NCCCc1cccc2c1C[C@H](CCCCc1ccccc1)O2 (stereo in doubt) [Example 4, N-[3-[2-(4-Phenylbutyl)-2,3-dihydrobenzofuran-4-yl]propyl]-2-methylpropionamide], the IC50 (ML1b receptor; Table I) was 10 to 250 nM and the IC50 (ML1a receptor; Table I) was under 10 nM.
CCCC(=O)NCCCc1cccc2c1C[C@H](CCCCc1ccccc1)O2 [Example 3, N-[3-[2-(4-Phenylbutyl)-2,3-dihydrobenzofuran-4-yl]propyl]butyramide] gave an IC50 (ML1b receptor; Table I) of 10 to 250 nM and an IC50 (ML1a receptor; Table I) of under 10 nM.
“N-3-(2-(2-Phenyleth-1-yl)benzofuran-3-yl)prop-1-yl-cyclopropanecarboxamide [Example 26]” was tested, and the IC50 (ML1b receptor; Table III) was 10 to 250 nM and the IC50 (ML1a receptor; Table III) was 10 to 250 nM.
